In patent EP4178959B1, “NITROGEN HETEROCYCLIC CYTOKININ DERIVATIVES, COMPOSITIONS CONTAINING THESE DERIVATIVES AND USE THEREOF” (Univerzita Palackého v Olomouci, priority 2020, dated 2022):

What was measured:
[1] = Calcein AM cytotoxicity assay, B10A.4 cells; conditions: mouse; for CC50 at 72 h: b10a.4 macrophages
Experimental: (§1) All compound concentrations were examined in duplicates. […] Zero cytotoxicity is a basic prerequisite for the use of these substances in cosmetical applications. To assess the antitumor activity, the toxicity of new derivatives on panels containing cell lines of different histogenic and species origin was tested (Table 5). […] The compounds listed in Table 5 can be divided into 2 groups.
(§2) The first group contains "classical cytokinins" represented by 6-substituted purines (their effects are already known). The second group includes novel 2-fluoro-N6-substituted-9-(2-oxacycloalkyl)-9H-purine-6-amine derivatives. […] Low cytotoxicity (high IC50 value) of the compounds is the basic prerequisite for cosmetic and medical applications. […] Table 5: Cytotoxicity of novel compounds for different normal cell lines tested / IC50 (µmol/L)

[2] = Calcein AM cytotoxicity assay, BJ cells; conditions: human
Experimental: as §1, §2

[3] = Calcein AM cytotoxicity assay, NIH3T3 cells; conditions: mouse
Experimental: as §1, §2

[4] = system: Arabidopsis thaliana; assay: Arabidopsis root growth inhibition test; format: in vivo, Arabidopsis thaliana (ecotype Columbia); conditions: for root growth inhibition (in words): compared to WT, 7-d-old seedlings; for Primary root length 7-d, WT = 100%: 7-d-old plants
Experimental: Arabidopsis thaliana seeds (ecotype Columbia) were sterilized with 70% ethanol and 0.1% Triton X-100 and then washed 4 times with sterile water. The seeds were transferred to Petri dishes on a solid medium consisting of MS (2.2 g l^-1), sucrose (10 g l^-1), agar (8 g l^-1), and supplemented with cytokinins or DMSO control (0.1% DMSO). After incubation for 3 days in darkness at 4°C, the seeds were germinated and grown horizontally in an environmental chamber at 22/20 °C under an 8 h light (120 µmol photons m^-2 s^-1)/16 h dark cycle for 4 days. 7-d-old seedling were used for measurements of the primary root length. At least 35 plants were used for each treatment and each treatment was repeated in at least 5 individual Petri dishes. The length of the primary root was evaluated using Scion Image software (Scion Corporation, Frederick, MD, USA). All measured parameters were statistically evaluated between untreated and treated plants according to Student's unpaired t-test. […] Tab. Inhibition of the primary root growth in 7-d-old Arabidopsis plants. 100% = WT plants, DMSO treated.

[5] = system: Arabidopsis thaliana; assay: Effect on the root proliferation of Arabidopsis thaliana; format: in vivo, Arabidopsis thaliana (ecotype Columbia); conditions: for Concentration with highest activity: number of lateral roots; for Activity (%) [10^-8 mol.l^-1 Kin = 100%]: number of lateral roots (% of control), at concentration with highest activity
Experimental: Arabidopsis thaliana seeds (ecotype Columbia) were sterilized with 70% ethanol and 0.1% Triton X-100 and then washed with 70% ethanol containing 0.01% Triton X-100. Then the seeds were transferred to vertical square petri dishes (11 seeds per dish) on a solid medium consisting of MS (2.15 g/l), MES (0.5 g/l), sucrose (1 g/l), agar (11 g/l), buffered to pH 5.8, and various concentrations of tested compounds. The compounds were dissolved in DMSO, thus 0.05% DMSO was used as a control solution. After incubation for 3 days in darkness at 4°C, the seeds were germinated and grown in an environmental chamber (fluorescence light intensity 150 µE m^-2 s^-1, humidity 55%, 16 h day/8 h night, 22°C). […] The number of lateral roots was scored under a stereomicroscope. […] In addition, compounds with tetrahydropyranyl protection at N9 slightly increase the number of emerged lateral roots (Fig 3C). […] Table 6: […]

[6] = system: Zea mays seedlings; assay: Effect on development of Zea mays seedlings (hydroponic); format: in vivo, Zea mays cv. CELLUX; conditions: for Root dry mass (%) [4 x 10^-8 mol.l^-1 Kin = 100%] / Shoot dry mass (%) [10^-6 mol.l^-1 Kin = 100%]: at concentration with highest activity
Experimental: Maize seeds (Zea mays cv. CELLUX) were imbibed in tap water and germinated on a wetted filter paper. After 3 days, the germinated seedlings were transferred to aerated hydroponic tanks filled with Hoagland's nutrient solution. The plants were grown in an environmental chamber with 16 h light period (250 μE m^-2 s^-1) at 27°C and 8 h dark period at 20°C. Tested compounds diluted in DMSO were added to nutrient solution immediately when seedlings were nested in the tanks or after two additional days of cultivation. Control plants were grown in parallel with addition of corresponding amount of DMSO (up to 0.01%). Root and leaf tissues of ten plants were harvested at different time points after the application of the compounds, immediately frozen in liquid nitrogen and used for cytokinin content and transcript level analysis. Length of primary root and the first leaf were determined with ruler on sets of twelve plants, each cultivated in the independent tank (for every cytokinin application repeated ten times). Dry mass of root system and the aerial part was determined after cutting off the kernel and desiccation in dryer for two days at 60°C. […] Fig. 4) and up to 1 micromolar concentration when more seedlings were in the solution (approx. 50 seedlings per 1 liter; Fig. 5). […] Table 7: […]

[7] = system: excised wheat leaf tips; assay: Senescence inhibition on winter wheat leaf segments (chlorophyll retention); set-up: species or system Triticum aestivum cv. Hereward; conditions: for Emax: Triticum aestivum, foliar, read-out: Activity (%) [10^-4mol.l^-1 KTHP = 100%]; for Emax / Activity (%) [10^-4mol.l^-1 KTHP = 100%]: retention of chlorophyll in excised wheat leaf tips, 96 h in the dark, at concentration with highest activity; for Concentration with highest activity: retention of chlorophyll
Experimental: Seeds of winter wheat, Triticum aestivum cv. Hereward, were washed under running water for 24 hours and then sown on vermiculite soaked with the Knop's solution. They were placed in the grow chamber at 25 °C with a 16/8 h light period at 50 μmol.m^-2.s^-1. After 7 days, the first leaf was fully developed and the second leaf had started to grow. A tip section of the first leaf, approximately 35 mm long, was removed from 5 seedlings and trimmed slightly to a combined weight of 100 mg. The basal ends of the five leaf tips were placed in the wells of a microtiter polystyrene plate containing 150 μl of the solution of the tested compound each. The entire plate was inserted into a plastic box lined with paper tissues soaked with distilled water to prevent leaf sections from drying out. […] The absorbance of the extract was recorded at 665 nm. In addition, chlorophyll extracts from fresh leaves and leaf tips incubated in deionised water were measured. From the obtained data, the concetration with the highest activity was selected for each compound tested. Relative activity of the compound at this concentration was calculated (Table 7). […] The values shown are means of five replicates and the whole experiment was repeated twice. The compounds to be tested were dissolved in dimethylsulfoxide (DMSO) and the solution brought up to 10^-3 M with distilled water. […] The compounds listed in Table 7 can be divided into 2 groups. The first group contains "classical 6,9-disubstituted purines (KTHP as a control)" known in prior art. […] Table 9: […]

[8] = system: mouse immortalized bone marrow macrophages B10A.4; assay: Calcein AM cytotoxicity assay, B10A.4 cells; conditions: read-out: Cytotoxicity IC50, B10A.4, first column headed B10A.4, 72 hours
Experimental: as §1, §2

[9] = system: BJ (human foreskin fibroblasts); assay: Calcein AM cytotoxicity assay, BJ cells; conditions: read-out: Cytotoxicity IC50, BJ; Calcein AM, 72 hours
Experimental: as §1, §2

[10] = system: Mouse fibroblasts NIH3T3; assay: Calcein AM cytotoxicity assay, NIH3T3 cells; conditions: read-out: Cytotoxicity IC50, NIH-3T3; Calcein AM, 72 hours
Experimental: as §1, §2

[11] = system: sweet peppers, cucumbers and tomatoes; assay: Field trials with vegetables, overall; format: in vivo; conditions: 10 - 100 nM
Experimental: Besides, plants were treated with a commercial fertilizer (type Kristalon) with optimal ratio of N,P,K and micronutrients. Dosage of 2-fluoro-6-[(3-methoxylbenzyl)amino]-9-(tetrahydro-2H-pyran-2-yl)-9H-purine was in the range between 10 - 100 nM, but usually 50 or 100 nM from re-planting to the end of vegetation once a week 500 ml to each plant (Table 10). The application of the compound was performed 1-3 times per week (according to the cultivation system - field or hydroponic). Stock solution was prepared in the concentration range 1-5 µM, then dosing into hydroponic system, watering with fertilizer, or in concentration […] in final fertilizer for use in soil conditions. Number of replicates was 10 / 12 plants from each variant (including control).
In case of cucumbers, fruit weight harvested per plant varied from 99,6 / 110,0 %, number of fruits were 102,3 / 106,8 % compared to control. Fruit weight from 1 plant varied from 100,0 to 124,7 % and number of fruits varied from 92,9 to 143,2 %, compared to control, after application of the tested compound to sweet peppers. In most trials, the size of fruits increased after the application of the tested compound.

[12] = Cytotoxicity IC50, B10A.4, first column headed B10A.4
[13] = tested concentration 0.04 µmol.l^-1
[14] = tested concentration 1 µmol.l^-1
[15] = tested concentration 25 µmol.l^-1

Row | Compound | IC50 at 72 h [1, 12] [µM] | IC50 at 72 h [2] [µM] | IC50 at 72 h [3] [µM] | root growth inhibition (in words) [4] | Primary root length 7-d, WT = 100% [4, 13] | Primary root length 7-d, WT = 100% [4, 14] | Primary root length 7-d, WT = 100% [4, 15] | Concentration with highest activity [5] | Activity (%) [10^-8 mol.l^-1 Kin = 100%] [5] | Root dry mass (%) [4 x 10^-8 mol.l^-1 Kin = 100%] [6] | Shoot dry mass (%) [10^-6 mol.l^-1 Kin = 100%] [6] | Concentration with highest activity ([6]; root dry mass) | Concentration with highest activity ([6]; shoot dry mass) | Emax [7] [%] | CC50 [8] [µM] | CC50 [9] [µM] | CC50 [10] [µM] | Concentration with highest activity [7] | Activity (%) [10^-4mol.l^-1 KTHP = 100%] [7] | also measured
1 | Oc1cccc(CNc2nc(F)nc3c2ncn3C2CCCCO2)c1 (centres unmarked) [Compound 65, 2-Fluoro-6-[(3-hydroxybenzyl)amino]-9-(tetrahydro-2H-pyran-2-yl)-9H-purine] | > 167 | > 167 | > 167 | did not caused the inhibition of root | 102.9 (±11.0) % | 40.6 (±2.1) % | 31.3 (±1.8) % | 10^-5 mol.l^-1 | 32.6 (± 6) % | 187.3 (± 18) % | 121.6 (± 7) % | 10^-7 mol.1^-1 | 10^-6 mol.1^-1 | 128 |  |  |  |  |  | 
2 | Oc1cccc(CNc2nc(F)nc3c2ncn3C2CCCO2)c1O (centres unmarked) [Compound 29] |  |  |  |  |  |  |  |  |  |  |  |  |  |  | > 167 | > 167 | > 167 | 10^-4 mol.l^-1 | 15 (±5) % | 
3 | Oc1cccc(CNc2ncnc3[nH]cnc23)c1 [meta-topolin, reference compound] |  |  |  |  | 67.1 (±7.2) % | 33.9 (±2.0) % | 19.3 (±2.3) % |  |  |  |  |  |  |  |  |  |  |  |  | CC50 at 72 h [1, 12]: > 167 µM; CC50 at 72 h ([1]; Cytotoxicity IC50, B10A.4, second column headed B10A.4): 178 µM; CC50 at 72 h ([2]; bj fibroblasts): 166 µM; CC50 at 72 h ([3]; nih3t3 cells): 167 µM
4 | COc1cccc(CNc2nc(F)nc3c2ncn3C2CCCCO2)c1 (centres unmarked) [Compound 67, 2-Fluoro-6-[(3-methoxybenzyl)amino]-9-(tetrahydro-2H-pyran-2-yl)-9H-purine] | > 167 | > 167 | > 167 | did not cause significant root inhibition | 96.9 (±2.4) % | 50.3 (±1.1) % | 34.9 (±2.1) % | 10^-5 mol.l^-1 |  | 261.2 (± 20) % | 127.6 (± 9) % | 10^-7 mol.1^-1 | 10^-6 mol.1^-1 | 195 |  |  |  |  |  | effect on elongation of primary root (in words) ([5]; MS media, range of concentration 0.04 to 5 µM): does not have negative effect on elongation of primary root; effect on cell division and organ growth (in words) ([6]; root system and aerial part of seedlings): Positive effect; effect on fertility term elongation of vegetables, number of fruits, protection against abiotic stress (in words) [11]: positive effect
5 | C/C(=C\CO)CNc1nc(F)nc2c1ncn2C1CCCO1 (centres unmarked) [Compound 6] |  |  |  |  |  |  |  | 10^-5 mol.l^-1 | 48.5 (± 6) % | 167.2 (± 14) % | 121.2 (± 6) % | 10^-7 mol.1^-1 | 10^-6 mol.1^-1 |  | > 167 | > 167 | > 167 | 10^-4 mol.l^-1 | 138.2 (± 17) % | 
